Measurements from EPA's ToxValDB 9.5 (doi:10.2903/j.efsa.2012.2522).
Converted amounts (≈) assume the structure as drawn.

Columns and labels:
Daphnia magna = settings: chronic/long-term; duration: 21 days; reproduction
Pimephales promelas = settings: chronic/long-term; duration: 33 days; growth
Cyprinus carpio = settings: acute; duration: 96 hours; mortality
Apis mellifera = settings: acute, mortality
Bibionidae = settings: chronic/long-term; duration: 28 days
Folsomia candida = settings: chronic/long-term
[1] = reproduction developmental, body weight

Cn1cc(C(=O)Nc2ccccc2-c2cc(F)c(F)c(F)c2)c(C(F)F)n1 [Fluxapyroxad]
LD50 (Anas platyrhynchos; acute, oral, unspecified, mortality): > 2000 mg/kg-day
NOEC (Anas platyrhynchos; reproductive): 33.6 mg/kg-day
LC50 (Anas platyrhynchos; short-term, oral, feed, mortality): > 1720 mg/kg-day
LC50 (Colinus virginianus; acute, oral, diet, mortality): > 912 mg/kg-day
LD50 (Colinus virginianus; acute, oral, mortality): > 2000 mg/kg-day
NOEC (Colinus virginianus; reproduction developmental): 74.6 mg/kg-day
NOAEL (Oryctolagus sp.; developmental, development): 25 mg/kg-day
NOEC (Daphnia magna): 0.5 mg/L
LD50 (Rattus norvegicus; acute, oral, mortality): > 2000 mg/kg-day
NOAEL (Rattus norvegicus; chronic, duration: 2 years, organ weight): 2.1 mg/kg-day
NOAEL (Rattus norvegicus; [1]): 25 mg/kg-day
NOAEL (Rattus norvegicus; subchronic, duration: 90 days, oral, organ weight): 6 mg/kg-day
NOEC (Pimephales promelas): 0.0359 mg/L
LC50 (Cyprinus carpio): 0.29 µg/mL (≈ 0.761 µM)
LC50 (Tagia sp.; acute, mortality): > 1000 mg/kg
NOEC (Tagia sp.; chronic/long-term, duration: 56 days): 21.3 mg/kg
LD50 (Apis mellifera; dermal): > 100 µg/piece
LD50 (Apis mellifera; oral, unspecified): > 111 µg/piece
NOEC (Bibionidae): 75.9 mg/L
NOEC (Folsomia candida): 2.99 mg/kg

O=C(O)c1cn[nH]c1C(F)F [1H-3-Difluoromethylpyrazole-4-carboxylic acid]
NOAEL (Oryctolagus sp.; [1]): 300 mg/kg-day

Cn1cc(C(=O)O)c(C(F)F)n1 [3-(Difluoromethyl)-1-methyl-1H-pyrazole-4-carboxylic acid]
NOAEL (Oryctolagus sp.; reproduction developmental, no effects): 250 mg/kg-day
